Test results as given in patent US10688193B2, “PH-sensitive linkers for delivering a therapeutic agent” (GNT BIOTECH & MEDICALS CORPORATION, priority 2015, dated 2020).

Experiments:
in vitro [1] = conditions: human, H184B5F5/M10 mammary epithelial cells
Text: (§2) After took photos, cells were counted by using hemocytometer.

in vitro [2] = conditions: human, MCF7 breast adenocarcinoma cells
Text: as §2

in vitro [3] = conditions: human, MDA-MB-231 breast adenocarcinoma cells
Text: as §2

in vitro [4] = conditions: human, MDA-MB-453 breast adenocarcinoma cells
Text: as §2

TNFα = TNFα (Homo sapiens, UniProt P01375); assay: Blocking of TNFα-induced MCF-7 cell apoptosis (MTS); format: cell-based; conditions: for Relative cell survival %: TNFα 12.5 ng/mL, MCF-7, 72 hours
Chain of TNFα (P01375 77-233 limits assumed, species assumed): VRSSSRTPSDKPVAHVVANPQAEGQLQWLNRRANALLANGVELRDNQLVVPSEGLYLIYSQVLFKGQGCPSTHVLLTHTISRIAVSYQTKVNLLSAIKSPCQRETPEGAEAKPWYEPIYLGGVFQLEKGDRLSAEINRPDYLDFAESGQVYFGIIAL
Method: We further examined Au/LKI-1/ETA complex by binding with secondary antibody conjugated with 1-5 nm AuNPs. In TEM images of Au/LKI-1/ETA complex, binding of 1-5 nm gold-labeled secondary anti-human IgG antibodies to ETA located on the AuNP surface was observed (FIG. 4C). We further investigated the TNFα blocking ability of ETA and Au/LKI-1/ETA. MCF-7 cells (5×10^5) were treated with the mixtures of 12.5 ng/mL TNFα and 62.5, 125, 250, 500 ng/mL ETA or Au/LKI-1/ETA complex for 2 hours, respectively. The treated cells were incubated at 37° C. for 72 hours and then the cell numbers were counted by MTS [(3-(4,5-dimethylthiazol-2-yl)-5-(3-carboxymethoxyphenyl)-2-(4-sulfophenyl)-2H-tetrazolium)] assay. […] ETA and Au/LKI-1/ETA complex were used to test their abilities in blocking TNFα induced MCF-7 cell apoptosis, Table 4.

[5] = Cytotoxicity assay of Au/LKs/Dox complexes (MTS, 72 hours); format: cell-based; conditions: human, H184B5F5/M10 mammary epithelial cells; M10, 72 hrs; read-out: IC50 value for complex cytotoxicity
Method: (§1) We examined the cytotoxicity of Au/LKs/Dox complexes and the IC50 value was calculated. […] The CellTiter 96® AQueous One Solution Cell Proliferation Assay (MTS) reagent was purchased from Promega (Madison, Wis., USA) and the assay was performed according to the manufacturer's instructions. Absorbance was measured at 490 nm using a microplate reader (Bio-tek, Powerwave X340, Winooski, Vt., USA).

MDA-MB-453 = assay: as above; format: cell-based; conditions: Homo sapiens; MDA-MB-453, 72 hrs; read-out: IC50 value for complex cytotoxicity
Method: as §1

MDA-MB-231 breast tumors = assay: MDA-MB-231 breast tumor xenograft efficacy study; format: in vivo, BALB/c-nu/nu mice
Text: FIG. 6 (A) to (D) show the treatment of MDA-MB-231 breast tumors. (A) Net animal weight change (g) during the treatment. From the data, doxorubicin and Au/LKI-1/Dox was cause the weight loss over 20% and 3% in nude mice (N=3), respectively. […] (B) The inhibition of MDA-MD-231 breast tumor growth (N=3): Dox>Au/LKI-1/Dox>Au/PEG=PBS. (C) TEM images of MDA-MB-231 breast tumor cells treated with Au/LKI-1/Dox complex was easy determined the Au/LKI-1/Dox complex in the tumor in xenograft model. (D) Immunohistochemistry of tumor specimens. Breast tumor specimens were taken from the mice, embedded in paraffin and stained with hematoxylineosin.
BALB/c-nu/nu mice were purchased from BioLASCO Taiwan. Eight week old male mice were injected unilaterally with 1.0×10^7 MDA-MB-231 breast tumor cells in 200 μL of 50:50 Matrigel/Leibovitz's (L-15) into the dorsum by subcutaneous injection. (1) Vehicle-PBS (negative control), (2) Doxorubicin (positive control), 5 mg/kg, (3) Au/PEG, (4) Au/LKI-1/Dox complex, 5 mg/kg of Dox. Treatment was ongoing until clinical symptoms necessitated sacrifice. Mice were weighed a minimum of two times/weekly and were monitored tumor size until clinical symptoms necessitated sacrifice (see FIG. 6A, 6B). TEM images of MDA-MB-231 breast tumor cells treated with Au/LKI-1/Dox complex in xenograft model. […] (see FIG. 6C) H&E stain of MDA-MB-231 tumor cells treated with Au/LKI-1/Dox complex in xenograft model. (see FIG. 6D)

Molecule	IC50 at 72 h (in vitro [1])	IC50 at 72 h (in vitro [2])	IC50 at 72 h (in vitro [3])	IC50 at 72 h (in vitro [4])	further results
Etanercept					TNFα blocking ability (TNFα; MCF-7 cells): TNFα blocking ability was observed; Relative cell survival % (TNFα; dose 62.5 ng/mL): 36.7 ± 1.4%; Relative cell survival % (TNFα; dose 125 ng/mL): 68.5 ± 2.3%; Relative cell survival % (TNFα; dose 250 ng/mL): 82.1 ± 6.5%; Relative cell survival % (TNFα; dose 500 ng/mL): 103.3 ± 0.9%
NNC(=O)OCCOCCOCCOCCOCCOCCNC(=O)CCCCC1CCSS1 (centres unmarked) [Linker I-5]	569 ± 54.7 µM	419 ± 23.8 µM	484 ± 64.6 µM	460 ± 87.9 µM	
NNC(=O)OCCOCCNC(=O)CCCCC1CCSS1 (centres unmarked) [Linker I-1]	584 ± 62.7 µM	692 ± 51.9 µM	529 ± 52.1 µM	299 ± 23 µM	
NNC(=O)OCCOCCOCCNC(=O)CCCCC1CCSS1 (centres unmarked) [Linker I-3]	555 ± 33.5 µM	538 ± 39.6 µM	454 ± 142 µM	333 ± 9.8 µM	
NNC(=O)OCCNC(=O)CCCCC1CCSS1 (centres unmarked) [Linker I-2]	686 ± 105 µM	730 ± 36.7 µM	536 ± 21.6 µM	432 ± 96.6 µM	
NNC(=O)OCCNC(=O)CNC(=O)CNC(=O)CNC(=O)CCCCC1CCSS1 (centres unmarked) [Linker II-3]	585 ± 132 µM	> 800 µM	428 ± 116 µM	> 800 µM	
COc1cccc2c1C(=O)c1c(O)c3c(c(O)c1C2=O)C[C@@](O)(C(=O)CO)C[C@@H]3O[C@H]1C[C@H](N)[C@H](O)[C@H](C)O1 [Dox, doxorubicin]					IC50 at 72 h [5]: 140 ± 34 nM; IC50 (MDA-MB-453): 650 ± 72 nM; inhibition of MDA-MB-231 breast tumor growth (rank order) (MDA-MB-231 breast tumors; N=3, 5 mg/kg of Dox): Dox>Au/LKI-1/Dox>Au/PEG=PBS; weight loss during the treatment (MDA-MB-231 breast tumors; nude mice (N=3), 5 mg/kg of Dox): over 20%; necrosis in tumor specimens (hematoxylin-eosin) (MDA-MB-231 breast tumors; xenograft tumors): more necrosis
NNC(=O)OCCOCCOCCOCCNC(=O)CCCCC1CCSS1 (centres unmarked) [Linker I-4]	560 ± 45.1 µM	569 ± 14.1 µM	576 ± 81.9 µM	342 ± 11 µM	

More lines, main results first:

IC50 at 72 h (in vitro [1])	IC50 at 72 h (in vitro [2])	IC50 at 72 h (in vitro [3])	IC50 at 72 h (in vitro [4])	Molecule	further results
500 µM	501 µM	474 µM	> 800 µM	NNC(=O)OCCNC(=O)CNC(=O)CCCCC1CCSS1 (centres unmarked) [Linker II-1]	
> 800 µM	> 800 µM	533 ± 63.9 µM	130 ± 13.4 µM	NNC(=O)OCCOCCOCCOCCNC(=O)CCCCCS [Linker SHI-4]	
> 800 µM	> 800 µM	> 800 µM	> 800 µM	NNC(=O)OCCNC(=O)CNC(=O)CNC(=O)CCCCC1CCSS1 (centres unmarked) [Linker II-2]	
> 800 µM	> 800 µM	559 ± 23.3 µM	128 ± 15.1 µM	NNC(=O)OCCOCCNC(=O)CCCCCS [Linker SHI-1]	
